Results on 33 compounds are retold here after patent publication US20110086834A1, “ALKYNYL ALCOHOLS AS KINASE INHIBITORS” (AMGEN INC., priority 2008, published 2011).

One test deals with T1, NIK (Homo sapiens, UniProt Q99558).
T1 construct: Both assays utilize a truncated form of NIK containing only the catalytic domain; made in house; host or cells: baculovirus expression system (insect cells implied)
T1 sequence (Q99558 400-655 limits assumed): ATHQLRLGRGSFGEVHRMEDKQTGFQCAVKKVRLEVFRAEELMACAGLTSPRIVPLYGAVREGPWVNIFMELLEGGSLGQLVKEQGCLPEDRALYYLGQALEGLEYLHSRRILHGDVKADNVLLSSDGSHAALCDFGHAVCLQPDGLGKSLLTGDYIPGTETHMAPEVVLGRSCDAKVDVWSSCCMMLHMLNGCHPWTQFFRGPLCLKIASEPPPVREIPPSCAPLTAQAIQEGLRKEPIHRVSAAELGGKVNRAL
Description: homogenous time resolved fluorescence (HTRF) assay for NIK Ki measurement. Format: biochemical.
Settings: not given
`Cc1cnc(C(C)(O)C#Cc2ccc3c(c2)N(c2ccnc(N)n2)CC3)o1` (stereo not drawn) [Example 316, 4-(1-(2-Amino-4-pyrimidinyl)-2,3-dihydro-1H-indol-6-yl)-2-(5-methyl-1,3-oxazol-2-yl)-3-Butyn-2-ol]: the Ki was below 1 µM.

The same test, now with this note: truncated NIK (catalytic domain only), autophosphorylation; 10 nM enzyme; 20, 100, 200 or 500 μM ATP; room temperature, 2 hours; read-out: Ki activity in the homogenous time resolved fluorescence (HTRF) assay for NIK.
As for `Cc1cc(C(C)(O)C#Cc2ccc(CN3CCOCC3)c(Nc3nc(N)ncc3Cl)c2)no1` (stereo not drawn) [Example 158, 4-(3-(2-Amino-5-chloropyrimidin-4-ylamino)-4-(morpholinomethyl)phenyl)-2-(5-methylisoxazol-3-yl)but-3-yn-2-ol], the Ki is below 1 µM.

On to `C[C@@](O)(C#Cc1ccc2c(c1)N(c1ncncc1Cl)CC21CCOCC1)c1nccs1` [Example 32, (2R)-4-[1-(5-chloropyrimidin-4-yl)-1,2,2′,3′,5′,6′-hexahydrospiro[indole-3,4′-pyran]-6-yl]-2-(1,3-thiazol-2-yl)but-3-yn-2-ol], for which the Ki is below 1 µM. With `CC(O)(C#Cc1cccc(Nc2ccncc2C(F)(F)F)n1)c1nccs1` (stereo not drawn) [Example 174, 2-(thiazol-2-yl)-4-(6-(3-(trifluoromethyl)pyridin-4-ylamino)pyridin-2-yl)but-3-yn-2-ol], the Ki is 1 to 30 µM. Regarding `CC(C)(C#Cc1ccc2c(c1)N(c1nc(N)ncc1Cl)CC2(C)CO)C(=O)OCc1ccccc1` (single isomer, unassigned) [Example 57, benzyl 4-((3S*)-1-(2-amino-5-chloro-4-pyrimidinyl)-3-(hydroxymethyl)-3-methyl-2,3-dihydro-1H-indol-6-yl)-2,2-dimethyl-3-butynoate], the Ki was below 1 µM.

For the compound `CN1CCC2(C=C(c3nc(N)ncc3Cl)c3cc(C#CC4(O)CCCC4)ccc32)CC1` [Example 222, 1-((3-(2-Amino-5-chloro-4-pyrimidinyl)-1′-methylspiro[indene-1,4′-piperidin]-5-yl)ethynyl)cyclopentanol], the Ki is below 1 µM. The same measure, in the same setting: in the case of `COCCN(C)c1ccc(C#CC(C)(O)c2cc(C)on2)cc1Nc1nc(N)ncc1Cl` (stereo not drawn) [Example 151, 4-(3-(2-Amino-5-chloropyrimidin-4-ylamino)-4-((2-methoxyethyl)(methyl)amino)phenyl)-2-(5-methylisoxazol-3-yl)but-3-yn-2-ol] it was below 1 µM.

For `CC(O)(C#Cc1ccc(F)c(Nc2nc(N)ncc2Cl)c1)c1nccs1` (stereo not drawn) [Example 166, 4-(3-(2-Amino-5-chloropyrimidin-4-ylamino)-4-fluorophenyl)-2-(thiazol-2-yl)but-3-yn-2-ol], the Ki was below 1 µM. Same read-out and setting: as for `Cc1cc(C(C)(O)C#Cc2ccc3c(c2)N(c2nc(N)ncc2Cl)CC3)no1` (racemic) [Example 23, 4-(1-(2-amino-5-chloropyrimidin-4-yl)indolin-6-yl)-2-(5-methylisoxazol-3-yl)but-3-yn-2-ol], the figure is below 1 µM; as for `Nc1ncc(Cl)c(Nc2cc(C#CC3(O)CCCC3)ccc2OC2CCOCC2)n1` [Example 149, 1-(2-(3-(2-Amino-5-chloropyrimidin-4-ylamino)-4-(tetrahydro-2H-pyran-4-yloxy)phenyl)ethynyl)cyclopentanol], below 1 µM. On the same count and under the same terms, in the case of `Cc1cc(C(C)(O)C#Cc2ccc3c(c2)N(c2nc(N)ncc2Cl)CC32CCS(=O)(=O)CC2)no1` (racemic) [Example 216, (rac)-4-(1-(2-Amino-5-chloro-4-pyrimidinyl)-1′,1′-dioxido-1,2,2′,3′,5′,6′-hexahydrospiro[indole-3,4′-thiopyran]-6-yl)-2-(5-methyl-3-isoxazolyl)-3-butyn-2-ol] it was below 1 µM.

Take `CN1CCC2(CC1)CN(c1nc(N)ncc1F)c1cc(C#CC3(O)CCCC3)ccc12` [Example 186, 1-((1-(2-amino-5-fluoropyrimidin-4-yl)-1′-methylspiro[indoline-3,4′-piperidine]-6-yl)ethynyl)cyclopentanol]: the inhibition constant Ki was below 1 µM. On to `C[C@](O)(C#Cc1ccc2c(c1)N(c1nc(N)ncc1Cl)CC21CCOC1)c1nccs1` (single isomer, unassigned) [Example 201, (2S)-4-((3S*)-1′-(2-Amino-5-chloro-4-pyrimidinyl)-1′,2′,4,5-tetrahydrospiro[furan-3,3′-indol]-6′-yl)-2-(1,3-thiazol-2-yl)-3-butyn-2-ol], for which the inhibition constant (Ki) lay in the range of 1 to 30 µM. Regarding `Cc1ccnc(C(C)(O)C#Cc2ccc3c(c2)N(c2nc(N)ncc2Cl)CC3)c1` (stereo not drawn) [Example 5, 4-(1-(2-amino-5-chloropyrimidin-4-yl)indolin-6-yl)-2-(4-methylpyridin-2-yl)but-3-yn-2-ol], the Ki was below 1 µM. With `Nc1ncc(Cl)c(-c2cn(CC3CCCN3)c3ccc(C#CC4(O)CCCC4)cc23)n1` (stereo not drawn) [Example 113, 1-(2-(3-(2-amino-5-chloropyrimidin-4-yl)-1-(pyrrolidin-2-ylmethyl)-1H-indol-5-yl)ethynyl)cyclopentanol], the Ki was below 1 µM. Consider `CC(O)(C#Cc1ccc2c(c1)N(c1ccnc(N)n1)CC2)c1ccc(Cl)s1` (stereo not drawn) [Example 281, 4-(1-(2-Amino-4-pyrimidinyl)-2,3-dihydro-1H-indol-6-yl)-2-(5-chloro-2-thienyl)-3-butyn-2-ol], for which the inhibition constant (Ki) is below 1 µM. The same measure, in the same setting: in the case of `COCCOc1cc(C#CC2(O)CCCC2)cc2c1ccn2-c1ccnc(N)n1` [Example 100, 1-(2-(1-(2-aminopyrimidin-4-yl)-4-(2-methoxyethoxy)-1H-indol-6-yl)ethynyl)cyclopentanol] it was below 1 µM. `CC(O)(C#Cc1ccc(CN2CCOCC2)c(Nc2nc(N)ncc2Cl)c1)c1nccs1` (stereo not drawn) [Example 157, 4-(3-(2-Amino-5-chloropyrimidin-4-ylamino)-4-(morpholinomethyl)phenyl)-2-(thiazol-2-yl)but-3-yn-2-ol]: the Ki is below 1 µM.

As for `CC(O)(C#Cc1ccc2c(c1)N(c1ccnc(N)n1)CC2)C1CCCC1` (stereo not drawn) [Example 293, 4-(1-(2-Amino-4-pyrimidinyl)-2,3-dihydro-1H-indol-6-yl)-2-cyclopentyl-3-butyn-2-ol], the Ki is below 1 µM.

On to `Cc1cc(C(C)(O)C#Cc2ccc(C)c(Nc3nc(N)ncc3Cl)c2)no1` (stereo not drawn) [Example 161, 4-(3-(2-Amino-5-chloropyrimidin-4-ylamino)-4-methylphenyl)-2-(5-methylisoxazol-3-yl)but-3-yn-2-ol], for which the Ki is below 1 µM. In the case of `CN(c1cc(C#CC(C)(O)c2nccs2)ccc1OC1CCOCC1)c1nc(N)ncc1Cl` (stereo not drawn) [Example 165, 4-(3-((2-amino-5-chloropyrimidin-4-yl)(methyl)amino)-4-(tetrahydro-2H-pyran-4-yloxy)phenyl)-2-(thiazol-2-yl)but-3-yn-2-ol], the inhibition constant (Ki) was below 1 µM. `C[C@@](O)(C#Cc1ccc2c(c1)N(c1nc(N)ncc1Cl)CC21CN(CCS(C)(=O)=O)C1)c1nccs1` [Example 184, (R)-4-(1′-(2-amino-5-chloropyrimidin-4-yl)-1-(2-(methylsulfonyl)ethyl)spiro[azetidine-3,3′-indoline]-6′-yl)-2-(thiazol-2-yl)but-3-yn-2-ol]: the Ki was below 1 µM.

As for `Nc1ncc(OCCN2CCOCC2)c(-c2c[nH]c3ccc(C#CC4(O)CCCC4)cc23)n1` [Example 230, 1-((3-(2-Amino-5-(2-(4-morpholinyl)ethoxy)-4-pyrimidinyl)-1H-indol-5-yl)ethynyl)cyclopentanol], the Ki fell in the range of 1 to 30 µM. On the same count and under the same terms, as for `CC(C)(O)C#Cc1ccc2nc3c(n2c1)-c1nc(N)ncc1CCC3` [Example 250, 4-(2-Amino-6,7-dihydro-5H-pyrido[1″,2″:1′,2′]imidazo[4′,′:6,7]cyclohepta[1,2-d]pyrimidin-11-yl)-2-methyl-3-butyn-2-ol], the figure is below 1 µM.

Take `CC(O)(C#Cc1ccc2c(c1)N(c1ncncn1)CC2(C)C)c1nccs1` (stereo not drawn) [Example 38, 4-(3,3-dimethyl-1-(1,3,5-triazin-2-yl)-2,3-dihydro-1H-indol-6-yl)-2-(1,3-thiazol-2-yl)-3-butyn-2-ol]: the Ki was below 1 µM. Consider `Nc1ncc(Cl)c(N2CCc3ccc(C#CC4(O)CCCC4)cc32)n1` [Example 16, 1-(2-(1-(2-amino-5-chloropyrimidin-4-yl)indolin-6-yl)ethynyl)cyclopentanol], for which the Ki was below 1 µM. Take `CN1CCC2(C1)CN(c1nc(N)nc3[nH]cnc13)c1cc(C#CC3(O)CCCC3)ccc12` (stereo not drawn) [Example 191, 1-((1-(2-Amino-9H-purin-6-yl)-1′-methyl-1,2-dihydrospiro[indole-3,3′-pyrrolidin]-6-yl)ethynyl)cyclopentanol]: the Ki is below 1 µM.

In the case of `CC(O)(C#Cc1ccc2c(c1)N(c1ccncc1Cl)CC2(C)C)c1nccs1` (stereo not drawn) [Example 313, 4-(1-(3-Chloro-4-pyridinyl)-3,3-dimethyl-2,3-dihydro-1H-indol-6-yl)-2-(1,3-thiazol-2-yl)-3-butyn-2-ol], the Ki was in the range of 1 to 30 µM. On the same count and under the same terms, as for `CC(O)(C#Cc1cccc(N(CCN2CCOCC2)c2ccncn2)n1)c1nccs1` (stereo not drawn) [Example 175, 4-(6-((2-morpholinoethyl)(pyrimidin-4-yl)amino)pyridin-2-yl)-2-(thiazol-2-yl)but-3-yn-2-ol], the figure is 1 to 30 µM; as for `COCCOc1ccc(Nc2ncnc(N3CC(C)(C)c4ccc(C#CC5(O)CCCC5)cc43)n2)cc1` [Example 17, 1-(2-(1-(4-(4-(2-methoxyethoxy)phenylamino)-1,3,5-triazin-2-yl)-3,3-dimethylindolin-6-yl)ethynyl)cyclopentanol], 1 to 30 µM.

On to `CC(O)(C#Cc1ccc2c(c1)N(c1nc(N)ncc1Cl)CC2(C)C)c1ccccn1` (stereo not drawn) [Example 304, 4-(1-(2-Amino-5-chloro-4-pyrimidinyl)-3,3-dimethyl-2,3-dihydro-1H-indol-6-yl)-2-(2-pyridinyl)-3-Butyn-2-ol], for which the Ki was below 1 µM. As for `CC(O)(C#Cc1ccc2c(c1)N(c1nc(N)ncc1Cl)CC2(CO)CO)c1nccs1` (stereo not drawn) [Example 60, 4-(1-(2-amino-5-chloro-4-pyrimidinyl)-3,3-bis(hydroxymethyl)-2,3-dihydro-1H-indol-6-yl)-2-(1,3-thiazol-2-yl)-3-butyn-2-ol], the Ki is below 1 µM. For the compound `CC(O)(C#Cc1ccc2c(c1)N(c1ccnc(N)n1)CC2)c1cccnc1` (stereo not drawn) [Example 290, 4-(1-(2-Amino-4-pyrimidinyl)-2,3-dihydro-1H-indol-6-yl)-2-(3-pyridinyl)-3-butyn-2-ol], the Ki was below 1 µM.
